Laboratory results: patent US9296741B2, “Bromodomain inhibitors” (priority 2012, dated 2016)
Marks after values point to notes of the source that are not given here.

What was measured:
[1] = target: human BRD4 first bromodomain (BDI_K57-E168) (Homo sapiens (Human), UniProt O60885); assay: TR-FRET bromodomain binding assay, BRD4 first bromodomain
[2] = target: human BRD4 second bromodomain (BDII_E352-M457) (Homo sapiens (Human), UniProt O60885); assay: TR-FRET bromodomain binding assay, BRD4 second bromodomain
[3] = tested on: breast cancer cell line MX-1; assay: MX-1 cell line proliferation assay; type: cell-based, human; conditions: Homo sapiens, MX1, 72 h; MX-1 cells, 3-day proliferation, Cell Titer Glo; read-out: Cellular proliferation: EC50
SKM1 = assay: Proliferation panel assay, AML SKM1; type: cell-based; conditions: Homo sapiens, SKM-1, read-out: Cellular Proliferation EC50
Raji = assay: Proliferation panel assay, AML Raji; type: cell-based; conditions: Homo sapiens, Burkitt lymphoma, read-out: Cellular Proliferation EC50
EJ-1 = assay: Proliferation panel assay, Bladder EJ-1; type: cell-based; conditions: EJ1, read-out: Cellular Proliferation EC50
MDAMB231 = assay: Proliferation panel assay, Breast MDAMB231; type: cell-based; conditions: Homo sapiens, MDA-MB-231, read-out: Cellular Proliferation EC50
MDAMB453 = assay: Proliferation panel assay, Breast MDAMB453; type: cell-based; conditions: Homo sapiens, MDA-MB-453, read-out: Cellular Proliferation EC50
GEO = assay: Proliferation panel assay, Colon GEO; type: cell-based; conditions: read-out: Cellular Proliferation EC50
DLD-1 = assay: Proliferation panel assay, Colon DLD-1; type: cell-based; conditions: Homo sapiens, read-out: Cellular Proliferation EC50
D54MG = assay: Proliferation panel assay, Glioblastoma D54MG; type: cell-based; conditions: read-out: Cellular Proliferation EC50
FaDu = assay: Proliferation panel assay, Head & Neck FaDu; type: cell-based; conditions: Homo sapiens, read-out: Cellular Proliferation EC50
HepG2 = assay: Proliferation panel assay, Hepatocellular HepG2; type: cell-based; conditions: Homo sapiens, read-out: Cellular Proliferation EC50
A-375 = assay: Proliferation panel assay, Melanoma A-375; type: cell-based; conditions: Homo sapiens, read-out: Cellular Proliferation EC50
OPM2 = assay: Proliferation panel assay, Multiple Myeloma OPM2; type: cell-based; conditions: Homo sapiens, OPM-2, read-out: Cellular Proliferation EC50
RPMI-8226 = assay: Proliferation panel assay, Multiple Myeloma RPMI-8226; type: cell-based; conditions: Homo sapiens, read-out: Cellular Proliferation EC50
NCI-H929 = assay: Proliferation panel assay, Multiple Myeloma NCI-H929; type: cell-based; conditions: Homo sapiens, read-out: Cellular Proliferation EC50
Ramos = assay: Proliferation panel assay, NHL Ramos; type: cell-based; conditions: Homo sapiens, read-out: Cellular Proliferation EC50
Ly18 = assay: Proliferation panel assay, NHL Ly18; type: cell-based; conditions: read-out: Cellular Proliferation EC50
H1299 = assay: Proliferation panel assay, NSCLC H1299; type: cell-based; conditions: Homo sapiens, NCI-H1299, read-out: Cellular Proliferation EC50
H1975 = assay: Proliferation panel assay, NSCLC H1975; type: cell-based; conditions: Homo sapiens, NCI-H1975, read-out: Cellular Proliferation EC50
H460 = assay: Proliferation panel assay, NSCLC H460; type: cell-based; conditions: Homo sapiens, NCI-H460, read-out: Cellular Proliferation EC50
HPAC = assay: Proliferation panel assay, Pancreas HPAC; type: cell-based; conditions: Homo sapiens, read-out: Cellular Proliferation EC50
BxPC3FP5 = assay: Proliferation panel assay, Pancreas BxPC3FP5; type: cell-based; conditions: read-out: Cellular Proliferation EC50
PC3M = assay: Proliferation panel assay, Prostate PC3M; type: cell-based; conditions: Homo sapiens, PC-3M, read-out: Cellular Proliferation EC50
786-0 = assay: Proliferation panel assay, RCC 786-0; type: cell-based; conditions: Homo sapiens, read-out: Cellular Proliferation EC50
SK-LMS-1 = assay: Proliferation panel assay, Sarcoma SK-LMS-1; type: cell-based; conditions: Homo sapiens, read-out: Cellular Proliferation EC50
[4] = Human liver microsome stability assay; type: in vitro ADME; conditions: both sexes, human, microsomes, pH 7.4
[5] = Rat liver microsome stability assay; type: in vitro ADME; conditions: rat liver microsomes (male Sprague-Dawley), 0.5 μM test compound, 0.25 mg/mL microsomal protein, pH 7.4, 37° C.; read-out: Stability in rat liver microsomes (t1/2 in minutes)
[6] = Mouse liver microsome stability assay; type: in vitro ADME; conditions: male, CD1, mouse, microsomes, pH 7.4
[7] = tested on: LPS induced IL-6 production; assay: LPS (lipopolysaccharide) induced IL-6 production mouse assay; type: in vivo; conditions: Mus musculus, read-out: Inhibition of LPS induced IL-6 production in Mice, % inhibition at 3 mg/kg; 3 mg/kg oral, 1 h before LPS; serum IL-6 2 h after LPS
[8] = tested on: MX-1 human breast cancer xenograft tumors; assay: Xenograft tumor growth inhibition assay, MX-1; type: in vivo, mouse; conditions: MX-1, PO, BID (5 on, 3 off)x2, vehicle F
[9] = tested on: Ramos human cancer cell xenograft; assay: Xenograft efficacy study, Ramos; type: in vivo, mouse; conditions: 3.125 mg/kg/day, PO, BID (5 d on, 3 d off)x2, vehicle F

Structure (SMILES) | Ki [1] | Ki [2] | EC50 [3] | EC50 (SKM1) | EC50 (Raji) | EC50 (EJ-1) | EC50 (MDAMB231) | EC50 (MDAMB453) | EC50 (GEO) | EC50 (DLD-1) | EC50 (D54MG) | EC50 (FaDu) | EC50 (HepG2) | EC50 (A-375) | EC50 (OPM2) | EC50 (RPMI-8226) | EC50 (NCI-H929) | EC50 (Ramos) | EC50 (Ly18) | EC50 (H1299) | other results
Cn1nc(-c2cc(NS(C)(=O)=O)ccc2Oc2ccccc2)c2cc(C(N)=O)[nH]c2c1=O [Example 78, 6-methyl-4-{5-[(methylsulfonyl)amino]-2-phenoxyphenyl}-7-oxo-6,7-dihydro-1H-pyrrolo[2,3-d]pyridazine-2-carboxamide] | 2.5 nM | 1.8 nM | 400 nM | 58 nM | 84 nM | 2090 nM | 1220 nM | 240 nM | 1290 nM | 4970 nM | 2300 nM | 390 nM | 885 nM | 3610 nM | 39 nM | 1400 nM | 154 nM | 320 nM | 420 nM | 2570 nM | EC50 (H1975): 1370 nM; EC50 (H460): > 10000 nM; EC50 (HPAC): 1190 nM; EC50 (BxPC3FP5): 740 nM; EC50 (PC3M): 8110 nM; EC50 (786-0): 884 nM; EC50 (SK-LMS-1): 934 nM
Cn1cc(-c2cc(NS(C)(=O)=O)ccc2Oc2ccccc2)c2cc[nH]c2c1=O [Example 4, N-[3-(6-methyl-7-oxo-6,7-dihydro-1H-pyrrolo[2,3-c]pyridin-4-yl)-4-phenoxyphenyl]methanesulfonamide] | 1.4 nM | 2 nM | 16.4 nM | 5 nM | 6 nM | 202 nM | 220 nM | 20 nM | 80 nM | 200 nM | 38 nM | 20 nM | 74.6 nM | 20 nM | 1 nM | 11 nM | 3 nM | 20 nM | 20 nM | 60 nM | EC50 (H1975): 20 nM; EC50 (H460): 3770 nM; EC50 (HPAC): 50 nM; EC50 (BxPC3FP5): 10 nM; EC50 (PC3M): 70 nM; EC50 (786-0): 11 nM; EC50 (SK-LMS-1): 25 nM; half-life at 0.5 μM [4]: 59 min; half-life at 0.5 μM [5]: 4 min; half-life at 0.5 μM [6]: 57 min; inhibition in vivo at 3 mg/kg [7]: 69%; % TGD (tumor growth delay) ([8]; 12.5 mg/kg/day): 70*** %; % TGI (tumor growth inhibition) ([8]; 12.5 mg/kg/day): 73*** %; % removed from study ([8]; 12.5 mg/kg/day): 10%; % TGD (tumor growth delay) ([8]; 25 mg/kg/day): 81*** %; % TGI (tumor growth inhibition) ([8]; 25 mg/kg/day): 77*** %; % removed from study ([8]; 25 mg/kg/day): 30%; % TGD (tumor growth delay) [9]: 27* %; % TGI (tumor growth inhibition) [9]: 19%; % removed from study [9]: 0%
